# Data published in US7981903B2, “2-[2-{phenylamino}-1H-pyrrolo[2,3-D]pyrimidin-4-yl)amino] benzamide derivatives as IGF-1R inhibitors for the treatment of cancer” (GlaxoSmithKline LLC, priority 2007, dated 2011).
# Columns and labels:
# human IGF1R (hIGF1R) = molecular target: T1, human IGF1R (hIGF1R) (Homo sapiens, UniProt P08069); assay: TR-FRET kinase assay of purified hIGF1R; assay type: biochemical; details: activated hIGF1R 0.5 nM, 10 μM ATP, values given as pIC50 category, read-out: IGF-1R pIC50 (converted)
# T1 construct: containing amino acid residues 957-1367 of human IGF1R; made in house; host or cells: Sf9 cells (baculovirus)
# T1 sequence (P08069 957-1367): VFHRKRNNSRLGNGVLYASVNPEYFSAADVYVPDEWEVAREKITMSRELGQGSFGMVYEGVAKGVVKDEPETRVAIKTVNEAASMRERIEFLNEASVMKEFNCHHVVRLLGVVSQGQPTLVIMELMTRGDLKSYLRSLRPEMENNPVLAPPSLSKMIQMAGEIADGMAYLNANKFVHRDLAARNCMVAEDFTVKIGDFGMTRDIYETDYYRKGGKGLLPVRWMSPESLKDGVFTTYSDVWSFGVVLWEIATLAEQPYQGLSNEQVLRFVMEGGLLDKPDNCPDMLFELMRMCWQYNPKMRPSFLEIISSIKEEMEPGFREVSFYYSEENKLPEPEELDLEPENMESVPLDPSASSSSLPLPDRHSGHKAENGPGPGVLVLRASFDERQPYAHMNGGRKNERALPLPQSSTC
# human IR (hIR) = molecular target: T2, human IR (hIR) (Homo sapiens, UniProt P06213); assay: TR-FRET kinase assay of purified hIR; assay type: biochemical; details: activated hIR 0.5 nM, 10 μM ATP, values given as pIC50 category
# T2 construct: containing amino acid residues 979-1382 of human IR; made in house; host or cells: Sf9 cells (baculovirus), same process as hIGF1R
# T2 sequence (P06213 979-1382): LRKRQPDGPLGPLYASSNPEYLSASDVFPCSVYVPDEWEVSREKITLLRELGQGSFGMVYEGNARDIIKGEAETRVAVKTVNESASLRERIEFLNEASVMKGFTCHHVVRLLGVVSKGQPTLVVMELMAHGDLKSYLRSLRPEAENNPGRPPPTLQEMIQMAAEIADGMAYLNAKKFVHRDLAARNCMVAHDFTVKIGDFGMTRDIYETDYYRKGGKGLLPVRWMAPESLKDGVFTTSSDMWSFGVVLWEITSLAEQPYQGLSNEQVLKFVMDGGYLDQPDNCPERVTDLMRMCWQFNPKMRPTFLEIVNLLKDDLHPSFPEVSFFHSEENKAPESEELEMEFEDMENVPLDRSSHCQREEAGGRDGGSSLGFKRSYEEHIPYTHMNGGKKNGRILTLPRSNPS
# Colo205 = assay: Inhibition of cell proliferation (CellTiter-Glo or InCell analyzer), Colo205; assay type: cell-based; details: Homo sapiens, COLO 205, 72 h / 3 days, values given as IC50 category
# Procedure, shortened: In one
# NCI-H929 = assay: Inhibition of cell proliferation (CellTiter-Glo or InCell analyzer), NCI-H929; assay type: cell-based; details: Homo sapiens, 72 h / 3 days, values given as IC50 category
# Protocol: Cell proliferation was measured by either CellTiter-Glo (measures cellular ATP level as a surrogate for total cell number) or by InCell analyzer (counts number of nuclei as a measure of cell number).
# For CellTiter-Glo assay, exponentially growing cell lines of different tumor origins, cultured in appropriate media containing 10% fetal bovine serum at 37° C. in a 5% CO2 incubator, were plated at low density (less than 2000cells/well) in 96-well plates. Twenty four hours post-plating, cells were treated with different concentrations of test compounds ranging from 30 uM to 1.5 nM. Several wells were left untreated as a control. Seventy two hours post-treatment, cell numbers were determined using 50-100 ul per well of CellTiter-Glo (Promega #G7573). Plates were incubated at 37° C. for 30 minutes and the chemiluminescent signal was read on the Victor V or Envison 2100 reader.
# For InCell Analyser assay, various cell lines of different tumor origins were grown to 70-80% confluency in appropriate culture media containing 10% fetal bovine serum at 37° C. in a 5% CO2 incubator. On day −1, cells were seeded at 2 densities in 384-well plates and incubated at 37° C. overnight. Stock compound plates were prepared in advance which contained dimethyl sulfoxide (DMSO) alone and a 9-point half-log decreasing dose range of the compound in DMSO. The compound plates were stored at −80° C. and each plate was only thawed once and used. On day 0, the main assay plates received compound or DMSO via a sonic delivery system (ECHO). The highest final concentration of compound of the dose range in the culture plates was 10 uM. These plates were cultured at 37° C. for 3 days. […] On day 3, the compound treated plates were stained and fixed to measure proliferation, apoptosis, and mitotic index using an InCelL1000 analyser. A nuclear stain was used to identify cells in the wells. By counting the number of nuclei, the proliferation index of compound treated groups were calculated as a percentage relative to the DMSO control, which was set to 100%. The IC50 values were calculated using model 205 in ExcelFit.
# IC50 (nM) values for compounds of select examples were categorized by relative inhibition of cell proliferation.
# [1] = molecular target: T3, NIH-3T3 cells overexpressing human IGF-1R (Homo sapiens, UniProt P08069); assay: IGF-1R cellular autophosphorylation (DELFIA); assay type: cell-based
# T3 construct: expressed in transfected cells; host or cells: NIH-3T3 (mouse fibroblasts)
# T3 sequence (P08069 31-1367): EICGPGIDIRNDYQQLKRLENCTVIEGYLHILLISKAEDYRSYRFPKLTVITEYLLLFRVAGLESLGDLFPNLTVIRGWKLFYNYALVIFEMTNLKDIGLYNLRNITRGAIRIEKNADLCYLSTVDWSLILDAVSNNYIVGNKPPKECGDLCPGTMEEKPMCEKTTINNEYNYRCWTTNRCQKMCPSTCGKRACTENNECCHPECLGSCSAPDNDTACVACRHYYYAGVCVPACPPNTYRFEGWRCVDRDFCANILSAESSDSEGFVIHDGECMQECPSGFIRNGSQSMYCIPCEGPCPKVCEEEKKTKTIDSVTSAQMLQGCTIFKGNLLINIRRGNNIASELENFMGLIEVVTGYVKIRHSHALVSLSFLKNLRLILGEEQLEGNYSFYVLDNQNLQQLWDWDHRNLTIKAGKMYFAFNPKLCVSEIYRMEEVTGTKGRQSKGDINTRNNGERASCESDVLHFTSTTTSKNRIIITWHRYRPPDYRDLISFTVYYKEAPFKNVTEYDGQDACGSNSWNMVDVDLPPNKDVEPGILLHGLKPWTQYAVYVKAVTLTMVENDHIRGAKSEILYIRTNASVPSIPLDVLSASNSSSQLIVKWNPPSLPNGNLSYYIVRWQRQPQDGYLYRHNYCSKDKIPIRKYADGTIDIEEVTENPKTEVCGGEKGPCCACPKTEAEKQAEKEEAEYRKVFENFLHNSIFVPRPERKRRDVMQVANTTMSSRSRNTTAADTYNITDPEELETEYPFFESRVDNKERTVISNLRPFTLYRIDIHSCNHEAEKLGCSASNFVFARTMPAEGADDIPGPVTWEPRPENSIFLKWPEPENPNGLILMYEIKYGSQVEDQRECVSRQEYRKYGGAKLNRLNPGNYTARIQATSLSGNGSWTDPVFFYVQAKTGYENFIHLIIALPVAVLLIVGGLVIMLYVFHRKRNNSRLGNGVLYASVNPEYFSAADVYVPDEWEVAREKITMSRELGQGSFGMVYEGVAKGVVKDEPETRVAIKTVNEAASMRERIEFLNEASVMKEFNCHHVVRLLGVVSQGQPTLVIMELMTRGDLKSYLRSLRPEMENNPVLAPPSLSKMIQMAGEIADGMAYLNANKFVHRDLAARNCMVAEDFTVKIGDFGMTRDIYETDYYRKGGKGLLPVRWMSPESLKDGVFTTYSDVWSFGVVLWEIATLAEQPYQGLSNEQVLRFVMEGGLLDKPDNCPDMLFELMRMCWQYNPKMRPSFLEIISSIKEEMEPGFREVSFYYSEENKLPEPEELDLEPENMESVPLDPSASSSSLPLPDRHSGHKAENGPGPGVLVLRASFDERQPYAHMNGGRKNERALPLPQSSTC
# Procedure, shortened: (§1)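 Receptor autophosphorylation measured by DELFIA, capturing IGF-1R or IRβ and detecting with europium anti-pTyr, reported as percent of IGF-1- or insulin-stimulated signal. Compounds (30 uM to 1.5 nM) added 2 h before ligand, then 15 min stimulation (IGF-1 30 ng/ml or insulin 3 ug/ml).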
# [2] = molecular target: T4, NIH-3T3 cells overexpressing human IR (Homo sapiens, UniProt P06213); assay: IR cellular autophosphorylation (DELFIA); assay type: cell-based; details: 2 h compound, insulin 3 ug/ml for 15 minutes, IC50 category
# T4 construct: expressed in transfected cells; host or cells: NIH-3T3 (mouse fibroblasts)
# T4 sequence (P06213 28-1382): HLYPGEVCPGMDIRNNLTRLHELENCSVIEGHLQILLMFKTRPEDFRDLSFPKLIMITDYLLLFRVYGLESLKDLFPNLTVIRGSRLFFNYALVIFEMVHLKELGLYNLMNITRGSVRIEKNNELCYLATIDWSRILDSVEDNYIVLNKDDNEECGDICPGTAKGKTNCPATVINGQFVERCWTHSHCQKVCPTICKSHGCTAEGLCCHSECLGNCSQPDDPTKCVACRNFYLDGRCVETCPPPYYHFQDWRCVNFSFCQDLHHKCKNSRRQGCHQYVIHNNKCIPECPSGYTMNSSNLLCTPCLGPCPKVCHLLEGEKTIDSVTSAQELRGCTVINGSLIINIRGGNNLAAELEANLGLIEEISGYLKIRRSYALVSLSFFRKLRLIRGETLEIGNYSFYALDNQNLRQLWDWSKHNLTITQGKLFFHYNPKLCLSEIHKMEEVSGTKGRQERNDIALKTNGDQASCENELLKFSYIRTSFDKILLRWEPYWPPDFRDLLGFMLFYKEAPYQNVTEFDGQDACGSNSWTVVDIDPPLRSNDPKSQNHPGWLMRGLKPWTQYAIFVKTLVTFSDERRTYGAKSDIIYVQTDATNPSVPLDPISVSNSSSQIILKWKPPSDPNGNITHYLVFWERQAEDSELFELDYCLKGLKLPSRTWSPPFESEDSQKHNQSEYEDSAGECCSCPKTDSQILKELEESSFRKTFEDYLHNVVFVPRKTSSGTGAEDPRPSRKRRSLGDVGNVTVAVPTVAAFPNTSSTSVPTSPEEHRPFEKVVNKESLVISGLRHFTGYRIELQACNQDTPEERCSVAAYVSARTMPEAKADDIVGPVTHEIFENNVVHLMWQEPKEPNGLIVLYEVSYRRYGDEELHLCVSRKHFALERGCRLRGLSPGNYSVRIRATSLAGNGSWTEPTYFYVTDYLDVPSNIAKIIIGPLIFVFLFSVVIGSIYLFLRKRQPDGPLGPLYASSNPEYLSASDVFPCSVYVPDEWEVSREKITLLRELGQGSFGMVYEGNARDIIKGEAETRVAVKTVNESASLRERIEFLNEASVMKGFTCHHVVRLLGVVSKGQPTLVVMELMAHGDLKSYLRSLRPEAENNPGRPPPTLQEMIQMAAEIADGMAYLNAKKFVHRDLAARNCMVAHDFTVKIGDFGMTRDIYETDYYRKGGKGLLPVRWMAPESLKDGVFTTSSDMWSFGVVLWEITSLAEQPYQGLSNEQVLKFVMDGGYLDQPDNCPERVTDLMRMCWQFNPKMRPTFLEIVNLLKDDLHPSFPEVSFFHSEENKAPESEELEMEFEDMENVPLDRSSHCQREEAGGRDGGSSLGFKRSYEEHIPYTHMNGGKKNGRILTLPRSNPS
# Procedure, shortened: as §1
# ALK = ALK (Homo sapiens, UniProt Q9UM73); assay: ALK enzyme assay (HTRF); assay type: biochemical; details: 0.25 nM ALK, 15.0 μM ATP, values given as pIC50 category
# Chain of ALK (Q9UM73 19-1620): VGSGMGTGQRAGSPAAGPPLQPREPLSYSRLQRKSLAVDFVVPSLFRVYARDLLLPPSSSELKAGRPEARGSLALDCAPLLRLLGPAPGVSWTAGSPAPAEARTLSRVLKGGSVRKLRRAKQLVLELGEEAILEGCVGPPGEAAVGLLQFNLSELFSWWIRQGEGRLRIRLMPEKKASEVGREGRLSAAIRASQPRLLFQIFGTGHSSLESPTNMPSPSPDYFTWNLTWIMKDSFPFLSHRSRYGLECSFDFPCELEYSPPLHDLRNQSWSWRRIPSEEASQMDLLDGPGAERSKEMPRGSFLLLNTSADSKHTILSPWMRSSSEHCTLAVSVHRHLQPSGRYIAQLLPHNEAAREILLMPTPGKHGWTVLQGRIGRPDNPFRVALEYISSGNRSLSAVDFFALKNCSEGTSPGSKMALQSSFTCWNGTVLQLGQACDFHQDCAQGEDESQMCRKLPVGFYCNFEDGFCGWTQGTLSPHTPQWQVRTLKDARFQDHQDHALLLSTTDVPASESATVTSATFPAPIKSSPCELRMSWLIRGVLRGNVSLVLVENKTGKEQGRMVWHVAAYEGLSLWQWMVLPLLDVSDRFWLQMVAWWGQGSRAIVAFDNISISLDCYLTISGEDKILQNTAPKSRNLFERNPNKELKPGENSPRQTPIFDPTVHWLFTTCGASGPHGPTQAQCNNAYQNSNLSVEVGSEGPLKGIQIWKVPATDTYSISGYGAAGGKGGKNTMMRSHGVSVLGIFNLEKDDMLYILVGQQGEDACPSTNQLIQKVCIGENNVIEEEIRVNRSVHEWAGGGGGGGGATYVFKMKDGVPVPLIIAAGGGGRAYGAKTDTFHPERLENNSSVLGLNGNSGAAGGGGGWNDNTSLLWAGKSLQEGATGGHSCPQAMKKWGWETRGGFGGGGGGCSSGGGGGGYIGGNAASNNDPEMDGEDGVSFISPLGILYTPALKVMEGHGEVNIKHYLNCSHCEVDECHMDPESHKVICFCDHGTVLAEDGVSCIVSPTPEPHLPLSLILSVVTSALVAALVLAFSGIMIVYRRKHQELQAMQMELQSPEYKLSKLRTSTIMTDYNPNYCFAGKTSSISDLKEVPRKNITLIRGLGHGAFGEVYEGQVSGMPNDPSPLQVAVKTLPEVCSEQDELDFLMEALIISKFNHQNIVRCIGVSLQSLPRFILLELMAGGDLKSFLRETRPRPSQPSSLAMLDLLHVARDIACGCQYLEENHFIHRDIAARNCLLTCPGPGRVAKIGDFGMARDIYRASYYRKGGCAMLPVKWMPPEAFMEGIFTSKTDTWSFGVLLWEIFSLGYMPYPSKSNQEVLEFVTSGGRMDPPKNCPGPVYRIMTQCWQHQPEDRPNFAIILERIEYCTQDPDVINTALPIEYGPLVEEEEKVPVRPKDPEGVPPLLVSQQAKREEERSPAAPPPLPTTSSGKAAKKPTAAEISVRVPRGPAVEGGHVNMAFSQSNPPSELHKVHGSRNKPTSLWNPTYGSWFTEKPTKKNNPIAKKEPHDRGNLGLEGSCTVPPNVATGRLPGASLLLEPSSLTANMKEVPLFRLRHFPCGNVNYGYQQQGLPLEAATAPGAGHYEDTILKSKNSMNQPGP
# Procedure, shortened: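 Final compound range 0.00017 to 10 μM (twelve 1:3 dilutions). Kinase reaction with ATP and biotinylated synthetic peptide runs 120 min at 20° C, stopped with EDTA; phosphotyrosine detected by HTRF after 60 min. Inhibition referenced to DMSO (1%) and EDTA (0.1 M) controls, curve-fitted.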
SMILES,IC50 (human IGF1R (hIGF1R)),IC50 (human IR (hIR)),IC50 (Colo205),IC50 (NCI-H929),IC50 [1],IC50 [2],IC50 (ALK)
"COc1cc2c(cc1Nc1nc(Nc3cccc(F)c3C(N)=O)c3c(C)c[nH]c3n1)N(C(=O)CN(C)C)CC2 [Example 259, 2-[(2-{[1-(N,N-dimethylglycyl)-5-(methyloxy)-2,3-dihydro-1H-indol-6-yl]amino}-5-methyl-1H-pyrrolo[2,3-d]pyrimidin-4-yl)amino]-6-fluorobenzamide]",0.251 to 1 nM,0.251 to 1 nM,250 to 1000 nM,< 250 nM,100 to 500 nM,100 to 500 nM,–
"COc1cc(N2CCC(N3CCCCC3)CC2)ccc1Nc1nc(Nc2cccc(F)c2C(N)=O)c2cc[nH]c2n1 [Example 45, 2-[(2-{[4-(1,4′-bipiperidin-1′-yl)-2-(methyloxy)phenyl]amino}-1H-pyrrolo[2,3-d]pyrimidin-4-yl)amino]-6-fluorobenzamide]",1.26 to 3.98 nM,1.26 to 3.98 nM,250 to 1000 nM,< 250 nM,100 to 500 nM,100 to 500 nM,–
"CCCN1CCC=C(c2ccc(OC)c(Nc3nc(Nc4ccc(F)cc4C(N)=O)c4cc[nH]c4n3)c2)C1 [Example 57, 5-fluoro-2-[(2-{[2-(methyloxy)-5-(1-propyl-1,2,5,6-tetrahydro-3-pyridinyl)phenyl]amino}-1H-pyrrolo[2,3-d]pyrimidin-4-yl)amino]benzamide]",–,0.251 to 1 nM,< 250 nM,< 250 nM,< 100 nM,< 100 nM,0.251 to 1 nM
"COc1cc2c(cc1Nc1nc(Nc3cc(Cl)cc(F)c3C(N)=O)c3cc[nH]c3n1)N(C(=O)CN1CCCC1)CCC2 [Example 173, 4-chloro-2-fluoro-6-[(2-{[6-(methyloxy)-1-(1-pyrrolidinylacetyl)-1,2,3,4-tetrahydro-7-quinolinyl]amino}-1H-pyrrolo[2,3-d]pyrimidin-4-yl)amino]benzamide]",–,–,250 to 1000 nM,< 250 nM,< 100 nM,100 to 500 nM,0.251 to 1 nM
"CNC(=O)c1c(F)cc(Cl)cc1Nc1nc(Nc2cc3c(cc2OC)CCN3C(=O)CN2CCCC2)nc2[nH]ccc12 [Example 176, 4-chloro-2-fluoro-N-methyl-6-[(2-{[5-(methyloxy)-1-(1-pyrrolidinylacetyl)-2,3-dihydro-1H-indol-6-yl]amino}-1H-pyrrolo[2,3-d]pyrimidin-4-yl)amino]benzamide]",0.251 to 1 nM,0.251 to 1 nM,250 to 1000 nM,250 to 1000 nM,100 to 500 nM,100 to 500 nM,–
"COc1cc2ccn(CC(=O)N(C)C)c2cc1Nc1nc(Nc2cccc(F)c2C(N)=O)c2cc[nH]c2n1 [Example 196, 2-[(2-{[1-[2-(dimethylamino)-2-oxoethyl]-5-(methyloxy)-1H-indol-6-yl]amino}-1H-pyrrolo[2,3-d]pyrimidin-4-yl)amino]-6-fluorobenzamide]",5.01 to 200 nM,–,–,> 1000 nM,> 500 nM,> 500 nM,5.01 to 200 nM
"CNC(=O)c1c(F)cccc1Nc1nc(Nc2cc3c(cc2OC)CCCN3C(C)=O)nc2[nH]ccc12 [Example 215, 2-[(2-{[1-acetyl-6-(methyloxy)-1,2,3,4-tetrahydro-7-quinolinyl]amino}-1H-pyrrolo[2,3-d]pyrimidin-4-yl)amino]-6-fluoro-N-methylbenzamide]",5.01 to 200 nM,5.01 to 158 nM,> 1000 nM,250 to 1000 nM,> 500 nM,> 500 nM,–
"CCCN1CCC(c2ccc(Nc3nc(Nc4cccc(F)c4C(N)=O)c4cc[nH]c4n3)c(OC)c2)CC1 [Example 42, 2-fluoro-6-[(2-{[2-(methyloxy)-4-(1-propyl-4-piperidinyl)phenyl]amino}-1H-pyrrolo[2,3-d]pyrimidin-4-yl)amino]benzamide]",0.251 to 1 nM,0.251 to 1 nM,< 250 nM,< 250 nM,100 to 500 nM,100 to 500 nM,–
"COc1cc2c(cc1Nc1nc(Nc3cccc(F)c3C(N)=O)c3c(F)c[nH]c3n1)N(C(=O)CN(C)C)CC2 [Example 252, 2-[(2-{[1-(N,N-dimethylglycyl)-5-(methyloxy)-2,3-dihydro-1H-indol-6-yl]amino}-5-fluoro-1H-pyrrolo[2,3-d]pyrimidin-4-yl)amino]-6-fluorobenzamide]",0.251 to 1 nM,0.251 to 1 nM,< 250 nM,< 250 nM,< 100 nM,< 100 nM,–
"COc1cc2c(cc1Nc1nc(Nc3ccc(F)c(F)c3C(=O)NC(C)C)c3cc[nH]c3n1)N(C(=O)CN(C)C)CCC2 [Example 164, 6-[(2-{[1-(N,N-dimethylglycyl)-6-(methyloxy)-1,2,3,4-tetrahydro-7-quinolinyl]amino}-1H-pyrrolo[2,3-d]pyrimidin-4-yl)amino]-2,3-difluoro-N-(1-methylethyl)benzamide]",5.01 to 200 nM,5.01 to 158 nM,> 1000 nM,250 to 1000 nM,–,–,1.26 to 3.98 nM
"COc1c(Nc2nc(Nc3cccc(F)c3C(N)=O)c3cc[nH]c3n2)ccc(N2CCN(C(C)C)CC2)c1C [Example 50, 2-fluoro-6-[(2-{[3-methyl-4-[4-(1-methylethyl)-1-piperazinyl]-2-(methyloxy)phenyl]amino}-1 H-pyrrolo[2,3-d]pyrimidin-4-yl)amino]benzamide]",–,–,> 1000 nM,250 to 1000 nM,> 500 nM,> 500 nM,1.26 to 3.98 nM
"COc1cc2c(cc1Nc1nc(Nc3cc(F)cc(F)c3C(N)=O)c3cc[nH]c3n1)N(C(=O)[C@@H]1CCCN1C)CC2 [Example 148, 2,4-difluoro-6-[(2-{[5-(methyloxy)-1-(1-methyl-L-prolyl)-2,3-dihydro-1H-indol-6-yl]amino}-1H-pyrrolo[2,3-d]pyrimidin-4-yl)amino]benzamide]",1.26 to 3.98 nM,1.26 to 3.98 nM,250 to 1000 nM,250 to 1000 nM,–,–,5.01 to 200 nM
"COc1cc2c(cc1Nc1nc(Nc3cccc(F)c3C(N)=O)c3cc[nH]c3n1)N(C(C)=O)CCC2 [Example 216, 2-[(2-{[1-acetyl-6-(methyloxy)-1,2,3,4-tetrahydro-7-quinolinyl]amino}-1H-pyrrolo[2,3-d]pyrimidin-4-yl)amino]-6-fluorobenzamide]",5.01 to 200 nM,5.01 to 158 nM,> 1000 nM,250 to 1000 nM,> 500 nM,> 500 nM,–
"CNC(=O)c1c(F)cccc1Nc1nc(Nc2cc3c(cc2OC)CCN3C(=O)[C@H](C)N(C)C)nc2[nH]ccc12 [Example 194, 2-[(2-{[1-(N,N-dimethyl-L-alanyl)-5-(methyloxy)-2,3-dihydro-1H-indol-6-yl]amino}-1H-pyrrolo[2,3-d]pyrimidin-4-yl)amino]-6-fluoro-N-methylbenzamide]",1.26 to 3.98 nM,1.26 to 3.98 nM,< 250 nM,< 250 nM,–,–,0.251 to 1 nM
"COc1cc2c(cc1Nc1nc(Nc3ccc(F)c(F)c3C(N)=O)c3cc[nH]c3n1)N(C(=O)CN(C)C)CC2 [Example 159, 6-[(2-{[1-(N,N-dimethylglycyl)-5-(methyloxy)-2,3-dihydro-1H-indol-6-yl]amino}-1H-pyrrolo[2,3-d]pyrimidin-4-yl)amino]-2,3-difluorobenzamide]",1.26 to 3.98 nM,1.26 to 3.98 nM,< 250 nM,< 250 nM,–,–,1.26 to 3.98 nM
